Key:
Format in all cases: cell-based
SK-MEL-2 = experiment: SRB growth assay, SK-MEL-2; settings: Homo sapiens, SK-MEL-2 (Melanoma), 48 hours, read-out: Percent viability
Excerpt: (§1) Tested cell lines included, Leukemia: CCRF-CEM, HL-60(TB), MOLT-4, RPMI-8226 and SR; Non-Small Cell Lung: A549/ATCC, EKVX, HOP-62, HOP-92, NCI-H226, NCI-H23, NCI-H322M, NCI-H460 and NCI-H522; Colon: COLO 205, HCC-2998, HCT-116, HCT-15. HT29, KM12 and SW-620; CNS: SF-268, SF-295, SF-539, SNB-19, SNB-75 and U251; Melanoma: LOX IMVI, MALME-3M, M14, MDA-MB-435, SK-MEL-2, SK-MEL-28, SK-MEL-5, UACC-257 and UACC-62; Ovarian: IGR-OV1, OVCAR-3, OVCAR-4, OVCAR-5, OVCAR-8. NCI/ADR-RES and SK-OV-3; Renal: 786-0, A498, ACHN, CAKI-1, RXF 393, SN12C, TK-10 and UO-31; Prostate: DU-145 and PC-3; and Breast: MCF7, MDA-MB-231/ATCC, MDA-MB-468, HS 578T, BT-549 and T-47D.
(§2) The cells were cultured in RPMI1640 media supplemented with 10% Fetal Bovine Serum (FBS), 2 mM glutamine and with 5% CO2 and 37° C. For experiment, 5% of FBS and 50 ug/mL of gentamycin were used. Test articles were 10 μM of NUCL 381-3 or 10 μM NUCL 383-3. The positive control was 10 μM of doxorubicin.
(§3) Cells were plated in 96 well plates. The cells were plated in triplicate. Cells were plated at the densities based on NCI recommendation. Time zero cells (Tz) were fixed the following day with 50% or 80% ice cold Trichloracetic acid (TCA) and washed 5× with water. At 48 hours post addition of treatments, all remaining plates were fixed in 80% ice cold Trichloracetic acid (TCA) and washed 5× with water. After drying, one hundred microliters of 0.4% Sulphorhodamine B (SRB) in 1% acetic acid was added to each plate including the Tzero plate and incubated for 10 minutes at room temperature. After 5 additional washes with 1% acetic acid, plates were allowed to dry. One hundred microliters of Trizma base was added to each well and plates were read at 515 nm.
(§4) Percent of growth was calculated by the following formulas: [Ti/C]×100, where: Tz=absorbance readings for wells at time zero without treatment; C=absorbance readings of untreated cells (without treatment); and Ti=absorbance reading of wells with treatment.

MOLT-4 = experiment: SRB growth assay, MOLT-4; settings: Homo sapiens, MOLT-4 (Leukemia), 48 hours, read-out: Percent viability
Excerpt: as §1, §2, §3, §4

MDA-MB-435 = experiment: SRB growth assay, MDA-MB-435; settings: Homo sapiens, MDA-MB-435 (Melanoma), 48 hours, read-out: Percent viability
Excerpt: as §1, §2, §3, §4

U251 = experiment: SRB growth assay, U251; settings: Homo sapiens, U-251, U251 (CNS), 48 hours, read-out: Percent viability
Excerpt: as §1, §2, §3, §4

NCI/ADR-RES = experiment: SRB growth assay, NCI/ADR-RES; settings: Homo sapiens, NCI/ADR-RES (Ovarian), 48 hours, read-out: Percent viability
Excerpt: as §1, §2, §3, §4

NCI-H522 = experiment: SRB growth assay, NCI-H522; settings: Homo sapiens, NCI-H522 (Non-Small Cell Lung), 48 hours, read-out: Percent viability
Excerpt: as §1, §2, §3, §4

OVCAR-4 = experiment: SRB growth assay, OVCAR-4; settings: Homo sapiens, OVCAR-4 (Ovarian), 48 hours, read-out: Percent viability
Excerpt: as §1, §2, §3, §4

IGR-OV1 = experiment: SRB growth assay, IGR-OV1; settings: Homo sapiens, IGROV-1, IGR-OV1 (Ovarian), 48 hours, read-out: Percent viability
Excerpt: as §1, §2, §3, §4

PC-3 = experiment: SRB growth assay, PC-3; settings: Homo sapiens, PC-3 (Prostate), 48 hours, read-out: Percent viability
Excerpt: as §1, §2, §3, §4

SNB-19 = experiment: SRB growth assay, SNB-19; settings: Homo sapiens, SNB-19 (CNS), 48 hours, read-out: Percent viability
Excerpt: as §1, §2, §3, §4

UACC-62 = experiment: SRB growth assay, UACC-62; settings: Homo sapiens, UACC-62 (Melanoma), 48 hours, read-out: Percent viability
Excerpt: as §1, §2, §3, §4

HCC-2998 = experiment: SRB growth assay, HCC-2998; settings: Homo sapiens, HCC-2998 (Colon), 48 hours, read-out: Percent viability
Excerpt: as §1, §2, §3, §4

LOX IMVI = experiment: SRB growth assay, LOX IMVI; settings: Homo sapiens, LOX IMVI (Melanoma), 48 hours, read-out: Percent viability
Excerpt: as §1, §2, §3, §4

BT-549 = experiment: SRB growth assay, BT-549; settings: Homo sapiens, BT-549 (Breast), 48 hours, read-out: Percent viability
Excerpt: as §1, §2, §3, §4

786-0 = experiment: SRB growth assay, 786-0; settings: Homo sapiens, 786-0 (Renal), 48 hours, read-out: Percent viability
Excerpt: as §1, §2, §3, §4

HT29 = experiment: SRB growth assay, HT29; settings: Homo sapiens, HT-29, HT29 (Colon), 48 hours, read-out: Percent viability
Excerpt: as §1, §2, §3, §4

CAKI-1 = experiment: SRB growth assay, CAKI-1; settings: Homo sapiens, CAKI-1 (Renal), 48 hours, read-out: Percent viability
Excerpt: as §1, §2, §3, §4

SF-539 = experiment: SRB growth assay, SF-539; settings: Homo sapiens, SF-539 (CNS), 48 hours, read-out: Percent viability
Excerpt: as §1, §2, §3, §4

SN12C = experiment: SRB growth assay, SN12C; settings: Homo sapiens, SN12C (Renal), 48 hours, read-out: Percent viability
Excerpt: as §1, §2, §3, §4

M14 = experiment: SRB growth assay, M14; settings: Homo sapiens, M14 (Melanoma), 48 hours, read-out: Percent viability
Excerpt: as §1, §2, §3, §4

NCI-H23 = experiment: SRB growth assay, NCI-H23; settings: Homo sapiens, NCI-H23 (Non-Small Cell Lung), 48 hours, read-out: Percent viability
Excerpt: as §1, §2, §3, §4

UACC-257 = experiment: SRB growth assay, UACC-257; settings: Homo sapiens, UACC-257 (Melanoma), 48 hours, read-out: Percent viability
Excerpt: as §1, §2, §3, §4

A498 = experiment: SRB growth assay, A498; settings: Homo sapiens, A498 (Renal), 48 hours, read-out: Percent viability
Excerpt: as §1, §2, §3, §4

SMILES | viability at 10 µM (SK-MEL-2) [%] | viability at 10 µM (MOLT-4) [%] | viability at 10 µM (MDA-MB-435) [%] | viability at 10 µM (U251) [%] | viability at 10 µM (NCI/ADR-RES) [%] | viability at 10 µM (NCI-H522) [%] | viability at 10 µM (OVCAR-4) [%] | viability at 10 µM (IGR-OV1) [%] | viability at 10 µM (PC-3) [%] | viability at 10 µM (SNB-19) [%] | viability at 10 µM (UACC-62) [%] | viability at 10 µM (HCC-2998) [%] | viability at 10 µM (LOX IMVI) [%] | viability at 10 µM (BT-549) [%] | viability at 10 µM (786-0) [%] | viability at 10 µM (HT29) [%] | viability at 10 µM (CAKI-1) [%] | viability at 10 µM (SF-539) [%] | viability at 10 µM (SN12C) [%] | viability at 10 µM (M14) [%] | also measured
COc1cccc2c1C(=O)c1c(O)c3c(c(O)c1C2=O)C[C@@](O)(C(=O)CO)C[C@@H]3O[C@H]1C[C@H](N)[C@H](O)[C@H](C)O1 [Doxorubicin, reference compound] | 11.6 | 30.4 | 17.4 | 22 | 78.8 | 18.1 | 103 | 8.63 | 50 | 37.3 | 4.85 | 20.9 | 24.4 | 62.5 | 17.6 | 34.9 | 0 | 6.83 | 45.4 | 25.5 | viability at 10 µM (NCI-H23): 27.6%; viability at 10 µM (UACC-257): 100%; viability at 10 µM (A498): 62.9%
FC(F)(F)c1cn(CC2CCNCC2)c2ncnc(Cl)c12 [NUCC-0000381] | 106 | 75.5 | 65.5 | 15.1 | 93.3 | 38.7 | 53 | 36.9 | 8.43 | 28.9 | 46.3 | 93.5 | 26 | 103 | 94.2 | 33.3 | 86.8 | 7.4 | 42.1 | 96.2 | viability at 10 µM (NCI-H23): 42.3%; viability at 10 µM (UACC-257): 87.2%; viability at 10 µM (A498): 93.8%
CS(=O)(=O)N1CCC(Cn2cc(C(F)(F)F)c3c(Cl)ncnc32)CC1 [NUCC-0000383] | 14.7 | 17.9 | 46.6 | 2.47 | 99 | 21.7 | 97 | 77.5 | 3.55 | 21.4 | 8.26 | 73.2 | 35.8 | 79.2 | 69.5 | 30.3 | 46.8 | 4.93 | 25.8 | 78.5 | viability at 10 µM (NCI-H23): 46.1%; viability at 10 µM (UACC-257): 74.7%; viability at 10 µM (A498): 101%

Reference: US9981968B2, “Substituted pyrrolo[2,3-d]pyrimidines for the treatment of cancer and proliferative disorders” (Northwestern University, priority 2013, dated 2018)
